Measurements from patent US20100239501A1, “GENE SENSITIVE TO BONE/JOINT DISEASE AND USE THEREOF” (RIKEN, priority 2007, published 2010).

Key:
[1] = tested on: OA patient-derived fibroblast-like synovial cells (HFLS-OA); assay: Inflammatory cytokine and MMP gene expression induction by LPA in human OA synovial cells; type: cell-based
Experimental: The inflammatory cytokine expression induction reaction of LPA, which is a ligand of EDG2, in OA patient-derived fibroblast-like synovial cells was analyzed. The method used is described below. OA patient-derived fibroblast-like synovial cells (HFLS-OA) were purchased from Cell application Co. The HFLS-OA was cultured using the attached Synoviocyte growth medium. The number of passages for the cells used was 4 or 5. The HFLS-OA was seeded to a 24-well plate at a ratio of 1×10^5 cells/well, and cultured using the attached Synoviocyte growth medium until they became confluent. Twelve hours before performing LPA stimulation, the medium was replaced with Ham's F-12 (Invitrogen) medium containing 0.1% fatty acid free bovine serum albumin (Sigma). In the time-related change analysis, 12 hours after the medium replacement, the cells were stimulated with 10 μM LPA; 0, 1, 2, 4, 8, 12 and 24 hours later, total RNA was extracted using ISOGEN (Nippon Gene), and the amounts expressed of the TNFA, IL1B, and IL6 genes, which are inflammatory cytokine genes, and of the MMP1, MMP3, and MMP13 genes, which are Matrix metalloproteinase (MMP) genes, were quantified by a method in accordance with Example 10 (n=4). In the dose dependency test, 12 hours after the medium replacement, the cells were stimulated with 0, 0.1, 0.3, 1, 3 and 10 μM LPA; 2 hours later, total RNA was extracted using ISOGEN (Nippon Gene), and the amounts expressed of the TNFA, IL1B, and IL6 genes, which are inflammatory cytokine genes, were quantified in the same manner as the above for the time-related change test (n=3). As a result of the time-related change test of inflammatory cytokine genes with LPA stimulation, the amounts of TNFA, IL1B and IL6 expressed rose transiently, with peaks reached 2, 4 and 1 hour later, respectively (FIGS. 8a, b and c). The amounts expressed of the MMP1, MMP3, and MMP13 genes, which are MMP genes, rose transiently, with peaks reached 8, 8 and 4 hours later, respectively (FIGS. 8d, e and f). It is known that in synovial cells, MMP genes have the expression thereof increased by inflammatory cytokines. In this experiment, the rise in the expression of the inflammatory cytokine genes preceded the rise in the expression of the MMP genes; therefore, the rise in the expression of MMP genes with LPA stimulation may be a secondary reaction via an inflammatory cytokine. As a result of the dose dependency test, it was shown that LPA raises the expression of inflammatory cytokine genes dose-dependently (FIGS. 8g, h and i). The amounts expressed of the TNFA and IL1B genes nearly reached a plateau at 1 μM, whereas the expression of the IL6 gene rose dose-dependently up to 10 μM. […] From this finding, it is thought that the inflammatory cytokine gene group induction reaction of LPA is very highly likely to be a reaction mediated mainly by the EDG2 gene.

[2] = tested on: rabbit synovial cell line (HIG-82); assay: Inflammatory cytokine and MMP gene expression induction by LPA in rabbit synovial cell line; type: cell-based
Experimental: EDG2 is a GPCR having lysophosphatidic acid (LPA) as a ligand thereof. For LPA, four receptors, including EDG2, have been reported (EDG2, EDG4, EDG7 and GPR23). To analyze the tissue distributions of these four LPA receptors, an expression quantitation analysis by quantitative real-time PCR in various human tissues was performed. On 500 ng of total RNA of each of various human tissues (Human Total RNA Master Panel, Clontech), reverse transcription was performed using Multiscribe reverse transcriptase (Applied biosystems) and a random hexamer, whereby a cDNA was obtained. Quantitation of the LPA receptor genes was performed using QuantiTect STBR Green PCR (Qiagen) on the ABI PRISM 7700 sequence detection system (Applied biosystems) as directed in the documentation attached. The number of copies of each gene was calculated using a working curve. The amount of each gene was standardized by being divided by the number of copies of the G3PDH gene. A Toyobo product was used as the primer for the G3PDH gene. […] In these organs, the amount of the EDG2 gene expressed was about 20 to 100 times as high as other LPA receptor genes; this gene is a dominant LPA receptor (FIG. 2). The EDG2 gene was also found to be expressed at moderate levels in the adrenal, cerebellum, lung, placenta, prostate, testis, thyroid, trachea, and uterus (FIG. 2). In these tissues, EDG2 was not always a dominant LPA receptor.
The inflammatory cytokine expression induction reaction of LPA in a rabbit synovial cell line was analyzed. The method used is described below. A rabbit synovial cell line (HIG-82) was purchased from ATCC. The HIG-82 was cultured using Ham's F-12 medium (Invitrogen) containing 10% fetal bovine serum (FBS) and antibiotics (100 U/ml penicillin G and 100 μg/ml streptomycin). The HIG-82 was seeded to a 24-well plate at a ratio of 1×10^5 cells/well, and cultured until they became confluent. Twelve hours before performing LPA stimulation, the medium was replaced with Ham's F-12 medium containing 0.1% fatty acid free bovine serum albumin (Sigma). In the time-related change analysis, 12 hours after the medium replacement, the cells were stimulated with 10 μM LPA; 0, 2, 4, 8, 12 and 24 hours later, total RNA was extracted using ISOGEN (Nippon Gene), and the amounts expressed of the TNFA and IL1B genes, which are inflammatory cytokine genes, and of the MMP1, MMP3 and MMP13 genes, which are MMP genes, were quantified by a method in accordance with Example 10 (n=4). In the dose dependency test, 12 hours after the medium replacement, the cells were stimulated with 0, 0.1, 1 and 10 μM LPA; 2 hours later, total RNA was extracted using ISOGEN (Nippon Gene), and the amounts expressed of the TNFA and IL1B genes, which are inflammatory cytokine genes, were quantified by the same method as with the time-related change test (n=4). As a result of the time-related change test of inflammatory cytokine genes with LPA stimulation, the amounts expressed of the TNFA and IL1B genes rose transiently, with peaks reached 2 hours later (FIGS. 9a and b). The amounts expressed of the MMP1, MMP3 and MMP13 genes, which are MMP genes, rose transiently, with peaks reached 4, 4 and 8 hours later, respectively. As a result of the dose dependency test, it was shown that LPA raised the expression of inflammatory cytokine genes dose-dependently. The amount expressed of the IL1B gene nearly reached a plateau at 1 μM, whereas the amount expressed of the TNFA gene rose dose-dependently up to 10 μM. The results above are well similar to the results for HFLS-OA shown in Example 17, showing that in HIG-82 cells as well, the expression of inflammatory cytokine genes is induced with LPA stimulation, and the expression of MMPs is induced paracrinely.

With CCCCCCCC/C=C\CCCCCCCC(=O)OC[C@@H](O)COP(=O)(O)O [LPA, 1-Oleoyl-sn-Glycero-3-Phosphate] the “rise of expression of inflammatory cytokine genes (TNFA, IL1B, IL6)” value ([1]; 0, 0.1, 0.3, 1, 3 and 10 μM LPA, 2 hours, n=3) was “dose-dependently”, the “time of peak of IL1B expression” value ([1]; 10 μM LPA, transient rise, n=4) was 4 h and the “time of peak of IL6 expression” value ([1]; 10 μM LPA, transient rise, n=4) was 1 h. For the same molecule, the “time of peak of MMP1 gene expression” value ([1]; 10 μM LPA, transient rise, n=4) was 8 h, the “time of peak of MMP3 gene expression” value ([1]; 10 μM LPA, transient rise, n=4) was 8 h and the “time of peak of MMP13 gene expression” value ([1]; 10 μM LPA, transient rise, n=4) was 4 h. The “time of peak of TNFA expression” value ([1]; 10 μM LPA, transient rise, n=4) was 2 h, the “LPA concentration at which IL1B gene expression nearly reached a plateau” value ([1]; dose dependency test, 2 hours) was 1 µM and the “LPA concentration at which TNFA gene expression nearly reached a plateau” value ([1]; dose dependency test, 2 hours) was 1 µM. The “LPA concentration up to which IL6 gene expression rose dose-dependently” value ([1]; dose dependency test, 2 hours) was “up to 10 μM”, the “rise of expression of inflammatory cytokine genes (TNFA, IL1B)” value ([2]; 0, 0.1, 1 and 10 μM LPA, 2 hours, n=4) was “dose-dependently” and the “time of peak of IL1B gene expression” value ([2]; 10 μM LPA, transient rise, n=4) was 2 h. For the same molecule, the “time of peak of MMP1 gene expression” value ([2]; 10 μM LPA, transient rise, n=4) was 4 h, the “time of peak of MMP3 gene expression” value ([2]; 10 μM LPA, transient rise, n=4) was 4 h and the “time of peak of MMP13 gene expression” value ([2]; 10 μM LPA, transient rise, n=4) was 8 h. For the same molecule, the “time of peak of TNFA gene expression” value ([2]; 10 μM LPA, transient rise, n=4) was 2 h, the “LPA concentration at which IL1B gene expression nearly reached a plateau” value ([2]; dose dependency test, 2 hours) was 1 µM and the “LPA concentration up to which TNFA gene expression rose dose-dependently” value ([2]; dose dependency test, 2 hours) was “up to 10 μM”.
